The compounds below were run against Retrograde regulation protein 3 (Saccharomyces cerevisiae (strain ATCC 204508 / S288c)) (UniProt P38165) (assay: Rtg3-GFP nuclear translocation in yeast, SAR follow-up, yeast TOR pathway modulator project, imaging, fluorescence microscopy, S288c (AID 504471)). Conditions: S. cerevisiae Rtg3-GFP, nuclear translocation by microscopy; at 30 µM; active compounds read high.

Nuclear translocation (1=yes, 0=no), active:
CNc1nc(N)c([N+](=O)[O-])c(Nc2ccccc2)n1 1, CNc1nc(N)c([N+](=O)[O-])c(Nc2cccc(F)c2)n1 1, CNc1nc(N)c([N+](=O)[O-])c(Nc2cccc(Cl)c2)n1 1, CO[C@H]1C[C@@H]2CC[C@@H](C)[C@@](O)(O2)C(=O)C(=O)N2CCCC[C@H]2C(=O)O[C@H]([C@H](C)C[C@@H]2CC[C@@H](O)[C@H](OC)C2)CC(=O)[C@H](C)/C=C(\C)[C@@H](O)[C@@H](OC)C(=O)[C@H](C)C[C@H](C)/C=C/C=C/C=C/1C 1
